Reference: PubChem BioAssay AID1320 (NMMLSC, 2008)
The source made the active and inactive calls. No rule for the calls is given here.

target: Bcl-2-related protein A1 (Homo sapiens) (UniProt Q16548); test: inhibitors of Bim binding to Bfl-1, dose response, biochemical, multiplexed, bead-based flow cytometry (AID 1320); details: Bim peptide-Bfl-1 binding, fluorescence; also: test concentration not given here
Sequence (Q16548 whole entry, looked up): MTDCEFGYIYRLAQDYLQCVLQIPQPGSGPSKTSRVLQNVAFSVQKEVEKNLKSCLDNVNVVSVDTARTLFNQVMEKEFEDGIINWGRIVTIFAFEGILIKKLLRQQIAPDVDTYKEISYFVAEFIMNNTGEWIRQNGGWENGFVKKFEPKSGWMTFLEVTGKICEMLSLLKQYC

SMILES | percent span (inhibition)
CC1Cc2ccccc2N1C(=O)c1ccc(N2CCCC2)c([N+](=O)[O-])c1 (stereo not given) | inactive
Clc1nc2ccccc2cc1/C=N/Nc1nc2ccccc2[nH]1 | inactive
COc1cc(/C=C2\S/C(=N/S(=O)(=O)c3ccc(C)cc3)NC2=O)c([N+](=O)[O-])cc1OC | inactive
Cc1ccnc(Nc2nc(-c3c(C)nc4sccn34)cs2)c1 | inactive
COc1ccc(N2CCN(C(CNS(=O)(=O)c3ccc4c(c3)OCCO4)c3ccco3)CC2)cc1 (stereo not given) | inactive
CN1C(=O)/C(=C/c2ccc(-c3ccccc3[N+](=O)[O-])o2)SC1=Nc1ccc(Cl)c(C(=O)O)c1 | inactive
Cc1ccc(NC(=O)C/C(N)=N/OC(=O)c2ccccc2)cc1 | inactive
COc1ccc(NC(=O)c2cc(-c3ccc(C)o3)nc3ccccc23)cc1OC | inactive
COc1ccc(N=C2NC(=O)/C(=C\C=C\c3ccco3)S2)cc1 | inactive
CCn1c(C)nc2cc(C(=O)N/N=C/c3ccc(O)c(O)c3O)ccc21 | inactive
COc1ccc(NC(=O)Cc2c(F)cccc2Cl)c(OC)c1 | inactive
COc1ccc(NC(=O)C2=C(C)NC(=O)NC2c2cccc(OC)c2OC)c(OC)c1 (stereo not given) | inactive
O=C(NCc1ccco1)C1CC2CCC1C2 (stereo not given) | inactive
Cc1c(N2C(=O)c3ccc4c5c(ccc(c35)C2=O)CC4)c(=O)n(-c2ccccc2)n1C | inactive
O=C1/C(=C/c2cccs2)Sc2ccccc21 | inactive
CSc1nnc2ccc(-c3cccs3)nn12 | inactive
Cc1onc(-c2ccccc2Cl)c1C(=O)Nc1nn[nH]n1 | inactive
CN1CCS/C1=C/C=C1/SC(=S)N(Cc2ccccc2)C1=O | inactive
Cc1nc(NC(=O)CC(C)C)sc1-c1csc(Nc2ccc(Cl)cc2)n1 | inactive
NC(=O)c1c(NC(=O)C2CCCO2)sc2c1CCCCC2 (stereo not given) | inactive
CCOc1cc(NC(=S)NC)c(OCC)cc1NC(=O)c1ccc(OC)cc1 | inactive
COC(=O)c1sc(NC(=O)c2ccc(Cn3cc(Cl)cn3)o2)c(C#N)c1C | inactive
COc1cc(C=Nc2cccc(C)c2)c(O)c([N+](=O)[O-])c1 | inactive
Cc1cc(C)nc(/N=C(\N)N2CCc3ccccc32)n1 | inactive

SMILES | percent span (inhibition)
Cc1cccc(-n2c(O)c(/C=N/N3CCOCC3)c(=O)[nH]c2=S)c1 | inactive
CC1C=CCC2C(=O)N(c3ccc(OC(=O)c4cccs4)cc3)C(=O)C12 (stereo not given) | inactive
CC1(C(=O)N(CC(=O)NC2CCCC2)Cc2ccco2)CC(=O)N=C2C=CC=CN21 (stereo not given) | inactive
COc1ccc(CC(=O)Nc2ccc(C(=O)Nc3nccs3)cc2)cc1OC | inactive
CC(C)COC(=O)/C(C#N)=C/c1cn(Cc2ccccc2)c2ccccc12 | inactive
O=[N+]([O-])c1cccc(S(=O)(=O)NCC2CCCO2)c1 (stereo not given) | inactive
OCCN1CCN(CCCc2c3c(cc4c2CCC4)CCC3)CC1 | inactive
COc1ccc(OC)c(Nc2ccc(C(=O)O)cc2[N+](=O)[O-])c1 | inactive
COc1cc(/C=C2/NC(=O)N(Cc3ccccc3F)C2=O)ccc1O | inactive
CC1=NN(c2ccc(C)cc2)C(=O)/C1=C\c1ccc(Br)s1 | inactive
O=C(CSc1nnc(Cc2ccccc2)o1)NCc1ccco1 | inactive
CCc1ccc(NC(=O)CC2NCCNC2=O)cc1 (stereo not given) | inactive
CN(C(=O)NC1CCCCC1)c1ccccc1 | inactive
CC1(C)CC(=O)C(C=NCCN2CCN(CCc3ccccc3)CC2)=C(O)C1 | inactive
COc1ccc2cc(CN(CCc3ccccc3)Cc3nnnn3CC3CCCO3)c(=O)[nH]c2c1 (stereo not given) | inactive
CCOC(=O)c1sc(NC(=O)c2ccncc2)c(C#N)c1C | inactive
CCCn1c(N2CCN(C)CC2)nc2c1c(=O)[nH]c(=O)n2C | inactive
Cc1cc(-c2csc(N)n2)c(C)n1CCc1ccccc1 | inactive
COc1cccc(NC(=O)CSc2nncn2N)c1 | inactive
COc1ccc(CCNC(=O)c2cc(-c3ccccn3)nc3c(Cl)cccc23)cc1OC | inactive
COc1cc(N2CCOCC2)ccc1C=C1C(=O)NC(=O)NC1=O | inactive
O=C1c2ccccc2C(=O)c2cc(S(=O)(=O)Nc3ccccc3)ccc21 | inactive
COCCCn1c(N)c(C(=O)Nc2sc3c(c2C(=O)OC)CCCC3)c2nc3ccccc3nc21 | inactive
COC(=O)CCC(=O)Nc1sc(C)c(C)c1C(N)=O | inactive

SMILES | percent span (inhibition)
CCn1c(SCC(=O)Nc2ccccc2-c2ccccc2)nnc1-c1ccoc1C | inactive
Cn1c(N)c(C(=O)COC(=O)c2cc(-c3ccco3)nc3ccccc23)c(=O)n(C)c1=O | inactive
c1ccc(-c2nc(N3CCCCC3)nc3ccccc23)cc1 | inactive
COc1cc(/C=N/NC(=O)CN(Cc2ccco2)S(=O)(=O)c2ccccc2)ccc1O | inactive
COc1cc2[nH]c(=S)nc(NCC3CCCO3)c2cc1OC (stereo not given) | inactive
Fc1ccc(Cn2nnnc2C(c2ccc(Cl)cc2)N2CCSCC2)cc1 (stereo not given) | inactive
COc1ccc(OC)c(NC(=O)CCCN2C(=S)NC(C)(C)CC2C)c1 (stereo not given) | inactive
Cc1noc(C)c1CN1C(=O)NC(Cc2ccccc2)(Cc2ccccc2)C1=O | inactive
C/C(=N\NC(=O)COc1ccc(C#N)cc1)c1ccccc1OC(F)F | inactive
CN(C)[C@@H]1C(=O)C(C(=O)NCN2CCCC2)=C(O)[C@@]2(O)C(=O)C3=C(O)c4c(O)cccc4[C@@](C)(O)C3CC12 (stereo not given in full) | inactive
Cc1ccc(-c2cc(-c3ccccc3)c(C#N)c(N)n2)o1 | inactive
Cc1ccc(-c2cc(C(=O)Nc3cc(C(=O)O)ccc3C)c3ccccc3n2)cc1 | inactive
O=C(Nc1ccccc1N1CCOCC1)c1cccs1 | inactive
CCOc1ccccc1/C=N/NC(=O)CNC(=O)COc1ccccc1 | inactive
CN(C)/C=C/C(=O)c1ccc(C(F)(F)F)cc1F | inactive
CCCCNC(=O)c1ccc2nc(-c3ccco3)c(-c3ccco3)nc2c1 | inactive
CCc1cccc(NC(=O)COc2ccccc2)c1 | inactive
CN(Cc1ccccc1)C(=O)c1[nH]cnc1C(=O)N[C@@H](CCCCNC(=O)OC(C)(C)C)C(=O)OC(C)(C)C | inactive
COc1cc2nc(=S)n(CCCN3CCOCC3)c(N)c2cc1OC | inactive
COc1ccc(N2CCN(C(=O)c3cc(=O)[nH]c4ccccc34)CC2)cc1 | inactive
CCOCCCn1c(N)c(C(=O)Nc2sc3c(c2C(=O)OC)CCCC3)c2nc3ccccc3nc21 | inactive
Cc1ccc(C(NC(=O)C(C)C)c2cc([N+](=O)[O-])c3cccnc3c2O)cc1 (stereo not given) | inactive
